Source: US6599943B1, “Use of hydroxyguanidines” (WaPharm AB, priority 1996, dated 2003)
Structures can show the parent of a compound that is named as a salt.

Biological target: bovine milk xanthine oxidase (Bos taurus, UniProt P80457)
Test: Capacity to sustain oxidation of xanthine by xanthine oxidase in the absence of oxygen, spectrophotometric
Format: biochemical
Design: host or cells: bovine milk
Details: for V = 1000 × (Δabs 295 nm) min^−1 (initial rate of the support of the oxidation of xanthine): 50 μM hydroxyguanidine, 50 μM xanthine, 0.05 units/ml xanthine oxidase, anaerobic, pH 7.5, 20° C., blank subtracted
Description: Capacities of a series of hydroxyguanidine to sustain the oxidation of xanthine by xanthine oxidase in the absence of oxygen. The capacities of various hydroxyguanidines to sustain the oxidation of xanthine was assayed by using a spectrophotometric method. In this method bovine milk xanthine oxidase was injected to a Helma® sealable cuvette for anaerobic application thereby creating 1 ml of a reaction mixture that contained reagents as follows: 50 μM of a hydroxyguanidine, 50 μM xanthine, 0.05 units/ml bovine milk xanthine oxidase, 50 mM Tris and 1.5 mM EDTA; the pH of the reaction mixture being 7.5, and the temperature 20° C. Anaerobic conditions were assured by pre-gassing all solutions used for 5-10 min, with nitrogen. The rate of formation of uric acid was monitored spectrophotometrically by measuring the increase in absorbance at 295 nm (the absorption maximum for uric acid) at intervals. The relative capacities of the hydroxyguanidines to sustain oxidation of xanthine were estimated from the derivative of the initial linear phase of the curves. To obtain blank readings an equal volume of the solvent of the hydroxyguanidine (water) was added to the reaction mixture in separate experiments and the initial rate of absorbance change was substracted from the rate readings of the tested hydroxyguanidine.
Exemplary initial rates for the rate of the support of the oxidation of xanthine obtained by assaying the exemplary hydroxyguanidines listed above by the method in the present example are furthermore given in Table 2: […]

bovine milk xanthine oxidase, sequence (P80457 whole entry): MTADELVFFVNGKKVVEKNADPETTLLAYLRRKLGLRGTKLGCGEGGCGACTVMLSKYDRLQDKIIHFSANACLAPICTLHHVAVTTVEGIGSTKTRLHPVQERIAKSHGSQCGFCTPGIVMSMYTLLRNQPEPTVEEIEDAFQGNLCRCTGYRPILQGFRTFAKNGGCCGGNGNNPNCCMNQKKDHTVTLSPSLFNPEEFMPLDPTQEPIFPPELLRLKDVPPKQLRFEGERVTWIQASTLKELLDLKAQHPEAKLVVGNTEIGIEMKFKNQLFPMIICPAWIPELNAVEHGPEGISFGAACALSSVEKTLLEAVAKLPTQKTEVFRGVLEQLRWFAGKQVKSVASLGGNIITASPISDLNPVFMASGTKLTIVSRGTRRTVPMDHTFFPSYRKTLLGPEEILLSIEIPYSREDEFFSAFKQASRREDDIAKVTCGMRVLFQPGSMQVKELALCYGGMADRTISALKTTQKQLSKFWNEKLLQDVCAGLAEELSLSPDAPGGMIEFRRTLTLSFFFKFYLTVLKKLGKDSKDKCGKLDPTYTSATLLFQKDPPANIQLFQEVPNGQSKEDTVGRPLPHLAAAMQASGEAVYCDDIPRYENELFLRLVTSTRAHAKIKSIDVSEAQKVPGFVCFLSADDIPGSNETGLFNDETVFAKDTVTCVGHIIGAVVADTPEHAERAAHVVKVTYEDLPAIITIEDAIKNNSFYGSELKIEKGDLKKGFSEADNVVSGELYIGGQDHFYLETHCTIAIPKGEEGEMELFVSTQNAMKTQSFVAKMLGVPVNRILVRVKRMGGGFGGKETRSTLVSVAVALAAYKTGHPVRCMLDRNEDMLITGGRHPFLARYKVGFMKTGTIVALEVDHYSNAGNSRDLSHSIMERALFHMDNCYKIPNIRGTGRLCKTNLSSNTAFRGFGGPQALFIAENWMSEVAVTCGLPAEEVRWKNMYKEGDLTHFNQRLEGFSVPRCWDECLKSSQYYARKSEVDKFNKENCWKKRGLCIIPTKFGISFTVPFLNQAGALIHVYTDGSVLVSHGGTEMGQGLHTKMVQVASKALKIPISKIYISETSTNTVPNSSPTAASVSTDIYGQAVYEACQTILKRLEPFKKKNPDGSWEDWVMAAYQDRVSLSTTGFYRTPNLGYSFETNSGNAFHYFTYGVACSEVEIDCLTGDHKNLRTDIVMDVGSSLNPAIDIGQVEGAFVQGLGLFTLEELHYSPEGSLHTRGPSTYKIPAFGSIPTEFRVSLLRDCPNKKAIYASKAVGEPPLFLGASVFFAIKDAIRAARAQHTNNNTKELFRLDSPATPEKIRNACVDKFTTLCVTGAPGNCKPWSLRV

Row | Structure (SMILES) | V = 1000 × (Δabs 295 nm) min^−1 (initial rate of the support of the oxidation of xanthine) | activity / capacity to undergo reduction (reaction A), in words (as disclosed in Example 7)
1 | N=C(NN)NO [Aminohydroxyguanidine, 1-amino-3-hydroxyguanidine, reference compound] | 1.4 1000 × (Δabs 295 nm) min^−1 | 
2 | COc1ccc(C=NNC(=N)NO)cc1Br [EN10, N-(3-Bromo-4-methoxybenzylideneamino)-N′-hydroxyguanidine tosylate] | 22 1000 × (Δabs 295 nm) min^−1 | 
3 | N=C(NO)NN=Cc1ccc(C(F)(F)F)cc1 [EN12, N-(4-Trifluoromethylbenzylideneamino)-N′-hydroxyguanidine tosylate] | 11 1000 × (Δabs 295 nm) min^−1 | 
4 | N=C(NO)N/N=C\C=C/c1ccccc1 [EN16, N-(3-Phenylpropenyleneamino)-N′-hydroxyguanidine tosylate] | 66 1000 × (Δabs 295 nm) min^−1 | 
5 | Cc1cc2oc(/C=N/NC(=N)NO)cc(=O)c2cc1Cl [EN18, N-(6-Chloro-7-methyl-4oxo-4H-1-benzopyran-3-methyleneamino)-N′-hydroxyguanidine tosylate] | 5 1000 × (Δabs 295 nm) min^−1 | 
6 | CC(=C/c1ccccc1)/C=N/NC(=N)NO [EN20] | 44 1000 × (Δabs 295 nm) min^−1 | 
7 | N=C(N)NO [Hydroxyguanidine, N-hydroxyguanidine] | 0.7 1000 × (Δabs 295 nm) min^−1 | 
8 | N=C(NO)N/N=C1\C(=O)Nc2ccc(F)cc21 [LT5, reference compound] | 50 1000 × (Δabs 295 nm) min^−1 | 
9 | CCCCCCOc1cccc(/C=N/NC(=N)NO)c1 [LT7, reference compound] | 12 1000 × (Δabs 295 nm) min^−1 | 
10 | N=C(NO)N/N=C/C1CCCCC1 [LT10, reference compound] | 3 1000 × (Δabs 295 nm) min^−1 | 
11 | COc1cccc(/C=N/NC(=N)NO)c1 [LT11, reference compound] | 26 1000 × (Δabs 295 nm) min^−1 | 
12 | N=C(NO)N/N=C/c1cccc(/C=N/NC(=N)NO)c1 [PR8, 1,3-Bis(N-hydroxyguanidinoiminomethyl)benzene tosylate chloride] | 29 1000 × (Δabs 295 nm) min^−1 | 

Results, then the molecule that gave them:

Row | V = 1000 × (Δabs 295 nm) min^−1 (initial rate of the support of the oxidation of xanthine) | activity / capacity to undergo reduction (reaction A), in words (as disclosed in Example 7) | Structure (SMILES)
13 | 40 1000 × (Δabs 295 nm) min^−1 |  | COc1ccc(/C=N/NC(=N)NO)cc1OC [DWO1, reference compound]
14 | 30.7 1000 × (Δabs 295 nm) min^−1 |  | COc1ccc(/C=N/NC(=N)NO)c(OC)c1C [DWO2, reference compound]
15 | 29.4 1000 × (Δabs 295 nm) min^−1 | moderate capacity | COc1ccc(/C=N/NC(=N)NO)c(OC)c1 [DWO3, reference compound]
16 | 36.7 1000 × (Δabs 295 nm) min^−1 |  | COc1ccc(/C=N/NC(=N)NO)cc1O [DWO4, reference compound]
17 | 59.7 1000 × (Δabs 295 nm) min^−1 |  | COc1ccc(/C=N/NC(=N)NO)c(Cl)c1O [DWO5, reference compound]
18 | 30.7 1000 × (Δabs 295 nm) min^−1 |  | COc1cc(Br)c(/C=N/NC(=N)NO)cc1OC [DWO6, reference compound]
19 | 30.7 1000 × (Δabs 295 nm) min^−1 |  | COc1ccc(/C=N/NC(=N)NO)cc1F [DWO7, reference compound]
20 | 45.4 1000 × (Δabs 295 nm) min^−1 |  | COc1cc(/C=N/NC(=N)NO)c([N+](=O)[O-])cc1OC [DWO8, reference compound]
21 | 0 1000 × (Δabs 295 nm) min^−1 |  | N=C(NO)N/N=C/c1c2ccccc2c(Cl)c2ccccc12 [LW01, reference compound]
22 | 55 1000 × (Δabs 295 nm) min^−1 |  | N=C(NO)N/N=C/c1ccc2c(c1)OCCO2 [LW04, reference compound]
23 | 63 1000 × (Δabs 295 nm) min^−1 |  | N=C(NO)N/N=C/c1ccc(/C=N/NC(=N)NO)cc1 [PR1, 1,4-Bis(N-Hydroxyguanidinoiminomethyl)Benzene Bromide]
24 | 1 1000 × (Δabs 295 nm) min^−1 |  | N=C(NO)NN=C(c1ccccc1)c1ccccc1 [PR2, N-(Diphenylmethyleneamino)-N′-Hydroxyguanidine Bromide]
25 | 7 1000 × (Δabs 295 nm) min^−1 |  | N=C(NO)NN=C1CCCCC1 [PR4, N-(Cyclohexylideneamino)-N′-Hydroxyguanidine Tosylate]
26 | 4 1000 × (Δabs 295 nm) min^−1 |  | ONc1ncn[nH]1 [PR6, 3-Hydroxyimino-1,2,4-triazole tosylate]
27 | −1 1000 × (Δabs 295 nm) min^−1 |  | CC(C)CC=NNC(=N)NO [PR10, N-(3-Methylbutylideneamino)-N′-hydroxyguanidine tosylate]
28 | 12 1000 × (Δabs 295 nm) min^−1 |  | COc1ccc(/C(C)=N/NC(=N)NO)cc1OC [PR11, 3,4-Dimethoxyacetophenone-N-hydroxyguanyl-hydrazone tosylate]
29 | 11 1000 × (Δabs 295 nm) min^−1 |  | N=C(NO)NN=Cc1ccco1 [PR12, N-(Furyl-2-methyleneamino)-N′-hydroxyguanidine tosylate]
30 | 3 1000 × (Δabs 295 nm) min^−1 |  | N=C(NO)NN=CCc1ccccc1 [PR13, N-(Phenylethylideneamino)-N′-hydroxyguanidine tosylate]
31 | 7 1000 × (Δabs 295 nm) min^−1 |  | N=C(NO)N/N=C/c1cccn1-c1ccc(Cl)cc1 [PR15, N-[1-(4-Chlorophenyl)-pyrrolyl-2-methyleneamino(]-N′-hydroxyguanidine tosylate]
32 | 13 1000 × (Δabs 295 nm) min^−1 |  | N=C(NO)N/N=C/c1nccs1 [PR16, N-(Thiazolyl-2-methyleneamino)-N′-hydroxyguanidine tosylate]
33 | −2 1000 × (Δabs 295 nm) min^−1 |  | N=C(NO)NN=CCOc1c(Cl)cccc1Cl [PR17, N-(2,6-Dichlorophenoxyethylideneamino)-N′-hydroxyguanidine bromide]
34 | 43 1000 × (Δabs 295 nm) min^−1 |  | Cc1c(/C=N/NC(=N)NO)sc2ccccc12 [PR18, N-(3-Methylbenzo[b]thienyl-2-methyleneamino)-N'-hydroxyguanidine tosylate]
35 | 5 1000 × (Δabs 295 nm) min^−1 |  | N=C(NO)N/N=C/c1cc[n+](O)cc1 [PR19, N-(N-Oxypyridyl-4-methyleneamino)-N′-hydroxyguanidine tosylate]
36 | 13 1000 × (Δabs 295 nm) min^−1 |  | Cc1nn(C)c(Cl)c1/C=N/NC(=N)NO [PR20, N-(5-Chloro-1,3-dimethylpyrazolyl-4-methyleneamino)-N′-hydroxyguanidine tosylate]
